This note sets out measurements from patent US6605619B1, “Nitroxides as protectors against oxidatives stress” (The United States of America as represented by the …, priority 1992, dated 2003).

Data set [1] concerns Chinese hamster V79 cells. The data set can be described thus: Protection of cells exposed to H2O2 under hypoxic conditions. Format: cell-based. Conditions: 600 μM H2O2, 1 h, 37° C. How it is done:
Some studies required exposure to H2O2 under hypoxic conditions. For these studies, cells dispersed in 1.8 ml of medium were plated into specially designed glass flasks (Russo et al, Radiat. Res., 103, 232-239, 1985). The flasks were sealed with soft rubber stoppers, and 19-gauge needles were pushed through to act as entrance and exit ports for a humidified gas mixture of 95% nitrogen/5% CO2 (Matheson Gas Products). […] Stoppered flasks were connected in series and mounted on a reciprocating platform and gassed at 37° C. for 45 min. […] After 45 min of gassing, the hypoxic H2O2 solution was added to the cell monolayer culture. The cells were exposed to H2O2 for 1 h under hypoxic conditions. N2 gas flow was maintained during the H2O2 exposure. In parallel flasks, DF and CHD were added as described above, and were present during the entire gassing procedure. Following treatment, cell survival was assessed as described above.

A short description of data set [2]: EPR signal of nitroxides exposed to O2 flux formed by HX/XO (spin-loss). Format: biochemical. Conditions: % from total R′RNO + R′RNOH after exposure to 5 mM HX + 0.03 U/ml XO in air-saturated PBS pH 7.2. How it is done: For EPR experiments, samples (0.05-0.1 ml) either of solutions of chemicals or cell suspensions were drawn by a syringe into a gas-permeable teflon capillary of 0.8 mm inner diameter, 0.05 mm wall thickness (Zeus Industrial Products, Inc. Raritan, N.J.). Each capillary was folded twice, inserted into a narrow quartz tube which was open at both ends (2.5 mm ID), and then placed horizontally into the EPR cavity. During the experiments, gases of desired compositions were blown around the sample without having to disturb the alignment of the tube within the EPR cavity. EPR spectra were recorded in a Varian E4 (or E9) X-band spectrometer, with field set at 3357 G, modulation frequency of 100 KHz, modulation amplitude of 1 G and non-saturating microwave power. The EPR spectrometer was interfaced to an IBM-PC through an analog-to-digital converter and a data translation hardware (DT2801) and the spectra were digitized using commercial acquisition software, enabling subtraction of background signals. To study the kinetics of the spin-loss, the spectra were deliberately overmodulated, and the magnetic field was kept constant while the intensity of the EPR signal was followed.

For `CC1(C)CN([O])C2(CCCCC2)O1` [CHD, 2-spirocyclohexane-5,5-dimethyl-3-oxazolidinoxyl], the “protection against H2O2 cytotoxicity under hypoxic conditions” value in data set [1] is “protects”. Moreover, the “Steady state EPR signal (%)” value in data set [2] amounted to 30%.
